Test results from patent publication US5405857A, “3-substituted 1,2,3,4,-oxatriazole-5-imine compounds, a process for the preparation thereof and a pharmaceutical preparation containing said compounds” (A/S GEA Farmaceutisk Fabrik, priority 1991, dated 1995).
Counter-ions that a name gives are not always drawn. Like-named read-outs stand apart in the source and are kept apart here.

How the values were obtained:
PAI-1 = assay: Inhibition of plasminogen activator inhibitor (PAI-1) from blood platelets (fibrinolytic activity); assay type: cell-based, human; details: 50 μM, 60 minutes; for % Inhibition of PAI-1 activity: compared to control; for PAI-1 activity: human PRP, control 3.24
Procedure: Compounds according to the invention were tested for their inhibition of plasminogen activator inhibitor (PAI). An established thrombus comprises aggregated platelets cohered by fibrin. The organism has a fibrinolyric system for maintaining normal physiological conditions. Endogenous plasminogen is activated to plasmin (fibrinolysin, that is a proteolytic enzyme decomposing fibrin) by means of a tissue plasminogen activator (t-PA). The platelets include the enzyme PAI-1 inhibiting the activation of plasminogen to plasmin, and thus also the decomposition of fibrin.
A general stimulation of the fibrinolytic system can cause serious hemostatic side effects (haemorrhages). A specific inhibition of PAI-1 induces an increased fibrinolysis in areas with many platelets, which is exactly the case in thrombi. As a result a thrombolytic effect is obtained.
Human PRP prepared by slight centrifugation as previously mentioned is used, but at a low temperature (4° C.). By incubation of PRP (1 ml in a plastic tube) during a slight shaking at 37° C. the PAI-1 activity is liberated, said PAI-1 activity being measured spectrophotometrically by means of a two-step procedure using commercial kits (Spectrolyse™/fibrin kit from BIOPOOL, Sweden).
The PAI-1 activity of the control PRP and PRP incubated with each of 6 compounds according to the invention and the reference substance sodium niroprusside (NNP) (50 μM of each for 60 minutes) appear from Table 6.

pre-contracted trachea = assay: Relaxation of pre-contracted isolated trachea; set-up: species or system guinea pig; details: Cavia porcellus; carbamylcholine 0.3 μM, Krebs buffer, 37° C.
Procedure: Compounds according to the invention were tested for their ability to relax a pre-contracted trachea. A contraction of the respiratory passages in combination with a swelling of the mucuos membrane therein presents a vital factor at asthmatic conditions. Relaxation or dilation of the contracted respiratory passages will improve the asthmatic condition.
An isolated trachea from a guinea pig is used. After preparation of a strip which has maintained the circular musculature, the organ is divided into two parts of equal size. The two tracheal strips are suspended in their respective organ bath and connected to a transducer recording the contraction and relaxation of the organ by means of a recorder. The two tracheal strips are continuously bathed in a Krebs buffer at 37° C., constantly bubbled with carbogen (95% O2 and 5% CO2). After an equilibration time of about 3 hours the organs are tested for their sensitivity (contractility) to carbamylcholin a bolus being added directly to the bath (0.3 μM). If the contraction is satisfactory, the organs are transferred to the Krebs buffer containing the same concentration of carbamylcholine. The organs are now constantly exposed to the carbamylcholine and slowly develop a permanent contraction ("asthma"). The test substances are in bolus form added directly to the organ bath. After maximum effect (relaxation) the substances are removed by washing out and the tracheal strip reverts to its permanent contraction state. […] An EC50 -value (that is the concentration relaxing the organ by 50% relative to the maximum relaxation) is calculated for each test substance by means of a linear regression analysis (log concentration (μM) as a constant ad abscissa and % relaxation as variable ad ordinate). Sodium nitroprusside (NNP) and SIN-1 are used as reference substances.

blood platelets = assay: Inhibition of blood platelet aggregation (aggregometer, ADP); assay type: cell-based, human (healthy testees); details: Platelet, 0.05 h; human PRP, ADP 2 to 4 μM, 3 min incubation, 37° C.; read-out: IC50 (Inhibition of blood platelet aggregation)
Procedure: Compounds according to the invention were tested for their inhibition of clumping together (aggregation) of blood platelets (thrombocytes), which is the first phase of the formation of blood clots (thrombi). Such an inhibition may prevent the formation of blood clots and inhibit the development of new thrombi after a diagnosed thrombus.
Citrate stabilized ( 0.38% of sodium citrate, final concentration) venous blood from healthy testees is used, who have not used medicine for at least 8 days. Slight centrifugation (160×g for 10 minutes) results in PRP (blood plasma rich in platelets) which is pipetted. PPP (blood plasma poor in platelets) is obtained by an intense centrifugation (3000×g for 10 minutes) of the remaining blood. The light transmission is measured by the aggregometer (CHRONOLOG). PRP allows nearly no light transmitaaion, while PPP allows complete transmission of light. The PRP is placed in the aggregometer at 37° C. while being stirred by a magnet. Addition of a pro-aggregating substance causes the PRP to aggregate gradually and an increasing light transmission takes place at the same time. At complete aggregation a light transmission corresponding to PPP is obtained. Adnosine diphosphate (ADP) is used as pro-aggregating substance, said substance representing a basic biochemical mechanism for aggregation of blood platelets. The test substances are incubated for 3 minutes in PRP placed in the aggregometer at 37° C. during magnetic stirring. A predetermined positively aggregating dosage of adenosine diphosphate (ADP) (2 to 4 μM) is then added. […] A so-called IC50 -value (that is the concentration inhibiting the aggregation by 50% relative to the control aggregation) is calculated for each test substance by linear regression analysis (log concentration μM as constant ad abscissa and % inhibition as variable ad ordinate). The following known reference substances have been used: nitroglycerine (GTN), sodium nitroprusside (NNP) and SIN-1 (the active metabolite of molsidomine).

[1] = target: T1, soluble guanylate cyclase (Homo sapiens, UniProt Q02153); assay: Stimulation of guanylate cyclase from blood platelets (RIA); assay type: biochemical; details: 37° C.
T1 construct: The guanylate cyclase activity in the supernatant after incubation with and without the test substance; endogenous in cells; host or cells: human blood platelets, supernatant of homogenate
T1 sequence (Q02153 1-619): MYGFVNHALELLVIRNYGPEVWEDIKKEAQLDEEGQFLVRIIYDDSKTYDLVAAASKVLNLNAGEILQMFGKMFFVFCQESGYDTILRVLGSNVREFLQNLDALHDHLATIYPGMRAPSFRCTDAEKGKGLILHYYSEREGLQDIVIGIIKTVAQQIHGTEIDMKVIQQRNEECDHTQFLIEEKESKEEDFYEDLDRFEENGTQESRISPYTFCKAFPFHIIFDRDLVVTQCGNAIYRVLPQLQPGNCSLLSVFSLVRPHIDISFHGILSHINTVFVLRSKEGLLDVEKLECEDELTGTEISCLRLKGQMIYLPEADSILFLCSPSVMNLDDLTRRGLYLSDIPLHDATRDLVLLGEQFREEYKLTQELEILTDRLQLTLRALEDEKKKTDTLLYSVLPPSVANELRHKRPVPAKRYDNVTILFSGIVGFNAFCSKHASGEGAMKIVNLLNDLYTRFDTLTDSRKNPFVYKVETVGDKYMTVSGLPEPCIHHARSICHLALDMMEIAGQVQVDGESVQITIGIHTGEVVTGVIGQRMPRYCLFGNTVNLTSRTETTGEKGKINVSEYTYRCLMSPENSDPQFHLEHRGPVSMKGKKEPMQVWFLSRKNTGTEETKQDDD
T1 sequence (Q02108 1-690 partner): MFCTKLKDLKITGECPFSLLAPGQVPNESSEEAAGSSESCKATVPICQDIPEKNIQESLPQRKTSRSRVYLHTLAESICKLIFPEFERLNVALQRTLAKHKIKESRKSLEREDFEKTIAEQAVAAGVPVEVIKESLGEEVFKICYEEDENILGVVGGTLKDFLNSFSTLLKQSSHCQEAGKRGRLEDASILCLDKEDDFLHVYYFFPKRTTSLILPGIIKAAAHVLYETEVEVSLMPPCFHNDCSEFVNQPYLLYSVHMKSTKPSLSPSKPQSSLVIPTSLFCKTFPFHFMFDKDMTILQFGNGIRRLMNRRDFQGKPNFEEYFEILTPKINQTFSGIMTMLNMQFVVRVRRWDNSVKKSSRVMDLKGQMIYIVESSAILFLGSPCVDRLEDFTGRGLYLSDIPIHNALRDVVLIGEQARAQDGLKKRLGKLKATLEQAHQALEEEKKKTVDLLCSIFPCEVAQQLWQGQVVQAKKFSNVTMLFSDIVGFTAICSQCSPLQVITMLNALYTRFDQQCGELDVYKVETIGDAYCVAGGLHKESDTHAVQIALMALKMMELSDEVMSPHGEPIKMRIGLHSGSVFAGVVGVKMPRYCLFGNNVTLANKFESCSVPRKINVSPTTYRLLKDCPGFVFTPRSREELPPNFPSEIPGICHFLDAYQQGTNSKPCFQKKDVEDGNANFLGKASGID

[2] = system: polymorph nuclear leukocytes (PMNs), c-GMP; assay: Stimulation of c-GMP content in PMNs; assay type: cell-based, human; details: 37° C., 10 minutes
Procedure: (§1) Compounds according to the invention were tested for their ability to increase the content of cyclic guanosine monophosphate (c-GMP), to inhibit the synthesis of the leukotriene B4 (LTB4), and to inhibit the chemotactical movement of polymorph nuclear leukocytes (PMN). The polymorph nuclear leukocytes play a vital part in the cellular part of the inflammation process. At diseases, such as asthma, the mucuos membrane of the respiratory passages is swollen as a result of an inflammation with a significant infiltration of polymorph nuclear leukocytes (PMN's) in particular. Particularly effective substances for the treatment of asthma are such which in addition to relaxing the musculature in the respiratory passages also have an anti-inflammatory effect on the cellular phase of the inflammatory process, that is inhibiting the leukocyte function.
(§2) Isolated human PMNs are incubated at 37° C. for 10 minutes, whereafter the content of cyclic guanosine monophosphate (c-GMP) is measured. Further, the synthesis of the LTB4 is determined after stimulation with Ca-ionophore (A23187) and the chemotaxis (controlled movement) towards FMLP (a substance attracting the polymorph nuclear leukocytes, PMNs) is determined.
Three compounds according to the invention and the reference substance SIN-1 were tested for their ability to stimulate the content of cyclic guanosine monophosphate (c-GMP).

[3] = system: polymorph nuclear leukocytes (PMNs), LTB4 synthesis; assay: Inhibition of leukotriene B4 synthesis in PMNs after Ca-ionophore (A23187); assay type: cell-based, human
Procedure: as §1, §2

[4] = system: polymorph nuclear leukocytes (PMNs); assay: Inhibition of PMN chemotaxis towards FMLP; assay type: cell-based, human
Procedure: as §1, §2

LD50 test, intravenous = assay: LD50 test, intravenous; set-up: species or system mice; details: mouse, in vivo, single injection, read-out: LD50 with 95% confidence limits
Procedure: (§3) Two tests were carried out on male rats, namely a determination of the "maximum tolerable dose" (MTD) and a test using multiple peroral doses. In addition, a LD50 test was carried out intravenously on mice.
(According to Litchfield and Wileoxon, J. Pharmacol. Exp. Therap. 96, 99-113, 1949).
The intravenous LD50 -value was determined after one single injection of different doses of the compound prepared in Example 4.

male rats = details: rat, in vivo, po, 20 mg/kg
Procedure: as §3
At this test the substances were administered perorally in a dose of 20 mg per kg. as solutions or suspensions once a day for 5 days to groups of 5 animals. Clinical observations were made every day and the above hematological parameters were measured on the third day of the test.

| Compound | EC50 (pre-contracted trachea) [nM] | IC50 (blood platelets) [nM] | Guanylate cyclase activity ([1]; 0.01 μM) | Guanylate cyclase activity ([1]; 10 μm (so in the source)) | other results |
| --- | --- | --- | --- | --- | --- |
| Cc1cccc(C)c1-[n+]1noc([NH-])n1 [Example 12] | 4900 |  |  |  | % Inhibition of PAI-1 activity (PAI-1): 37%; PAI-1 activity (PAI-1): 2.04 U/10^8 platelets |
| COc1ccc(CCNC(=O)[N-]c2n[n+](-c3cccc(Cl)c3C)no2)cc1OC [Example 47a, 3-(3-chloro-2-methylphenyl)-1,2,3,4-oxatriazole-5-(N-3,4-dimethoxyphenylethylcarbamoyl)imine] | 5200 |  |  |  |  |
| Cc1cc(Cl)ccc1-[n+]1noc([NH-])n1 [Example 13, 3-(4-chloro-2-methylphenyl)-1,2,3,4-oxatriazole-5-imine hydrochloride] | 1100 | 200 | 7642 pmole c-GMP/mg prot. × 15 minutes | 48126 pmole c-GMP/mg prot. × 15 minutes |  |
| [NH-]c1c[n+](N2CCOCC2)no1 [SIN-1, reference compound] | 18300 | 3900 | 0 pmole c-GMP/mg prot. × 15 minutes | 59733 pmole c-GMP/mg prot. × 15 minutes | c-GMP in PMNs ([2]; 1 μM): 32 fmole/10^6 cells; c-GMP in PMNs ([2]; 10 μM): 220 fmole/10^6 cells; c-GMP in PMNs ([2]; 100 μM): 473 fmole/10^6 cells; Inhibition of leukotriene B4 synthesis (in words) [3]: also able to inhibit these leukocyte functions, but only when used in higher concentrations; Inhibition of PMN chemotaxis (in words) [4]: also able to inhibit these leukocyte functions, but only when used in higher concentrations |
| [NH-]c1n[n+](-c2ccc(C(F)(F)F)cc2)no1 [Example 4] |  |  |  |  | LD50 (LD50 test, intravenous; female mice): 81 mg/kg; LD50 (LD50 test, intravenous; male mice): 89 mg/kg |
| Cc1c(Cl)cccc1-[n+]1noc([N-]C(=O)c2cccnc2)n1 [Example 54] | 600 |  | 8139 pmole c-GMP/mg prot. × 15 minutes | 18693 pmole c-GMP/mg prot. × 15 minutes |  |
| Cc1c(Cl)cccc1-[n+]1noc([NH-])n1 [Example 29, 3-(3-chloro-2-methylphenyl)-1,2,3,4-oxatriazole-5-imine] | 800 |  | 4407 pmole c-GMP/mg prot. × 15 minutes | 61900 pmole c-GMP/mg prot. × 15 minutes | % Inhibition of PAI-1 activity (PAI-1): 39%; PAI-1 activity (PAI-1): 1.97 U/10^8 platelets; c-GMP in PMNs ([2]; 1 μM): 209 fmole/10^6 cells; c-GMP in PMNs ([2]; 10 μM): 859 fmole/10^6 cells; c-GMP in PMNs ([2]; 100 μM): 1044 fmole/10^6 cells |
| COc1ccc(C(=O)[N-]c2n[n+](-c3cccc(Cl)c3C)no2)cc1 [Example 53] | 700 |  |  |  |  |
| CC(=O)Oc1ccccc1C(=O)[N-]c1n[n+](-c2cccc(Cl)c2C)no1 [Example 38] | 3200 | 200 | 1024 pmole c-GMP/mg prot. × 15 minutes | 82100 pmole c-GMP/mg prot. × 15 minutes | Clinical observations (male rats): N.R.; Hematological parameters (male rats): N.R.; Side effects (in words) (male rats): no side effects |
